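In this assay, cells in 96-well plates receive the compound at five concentrations for 48 hours. Endpoints are linearly interpolated between the surrounding concentrations. GI50: concentration for 50% inhibition of growth. TGI: concentration producing complete growth inhibition.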
Key:
Experiment in all cases: DTP human tumour cell line panel, 48 h
NCI-H460 lung = tested on: NCI-H460 lung
HCT-116 colon = tested on: HCT-116 colon
A549 NSCLC = tested on: A549 NSCLC
M19-MEL melanoma = tested on: M19-MEL melanoma
SNB-19 CNS = tested on: SNB-19 CNS
RPMI-8226 leukemia = tested on: RPMI-8226 leukemia
HOP-18 NSCLC = tested on: HOP-18 NSCLC
SNB-78 CNS = tested on: SNB-78 CNS
HOP-92 NSCLC = tested on: HOP-92 NSCLC
T-47D breast = tested on: T-47D breast
BT-549 breast = tested on: BT-549 breast

Row | SMILES | TGI (NCI-H460 lung) [µM] | TGI (HCT-116 colon) [µM] | TGI (A549 NSCLC) [µM] | TGI (M19-MEL melanoma) [µM] | TGI (SNB-19 CNS) [µM] | TGI (RPMI-8226 leukemia) [µM] | TGI (HOP-18 NSCLC) [µM] | TGI (SNB-78 CNS) [µM] | TGI (HOP-92 NSCLC) [µM] | GI50 (T-47D breast) [µM] | TGI (T-47D breast) [µM] | GI50 (BT-549 breast) [µM] | TGI (BT-549 breast) [µM] | GI50 (NCI-H460 lung) [µM] | GI50 (HCT-116 colon) [µM] | GI50 (A549 NSCLC) [µM] | GI50 (HOP-92 NSCLC) [µM] | GI50 (SNB-19 CNS) [µM] | GI50 (RPMI-8226 leukemia) [µM]
1 | O=C(Nc1cc(Cl)ccc1Cl)c1cc2cccc(Br)c2oc1=O | > 100 | > 100 | > 100 | > 100 | > 100 | > 100 | > 100 | – | – | – | – | – | – | – | – | – | – | – | –
2 | Cc1cc(C)nc(NS(=O)(=O)c2ccc(Nc3c4ccccc4nc4c(C(=O)Nc5ccc(S(=O)(=O)Nc6cc(C)on6)cc5)ccc(Cl)c34)cc2)n1 | 61.3 | 40.5 | – | > 100 | 48.9 | 57.8 | – | > 100 | – | – | – | – | – | – | – | – | – | – | –
3 | Cc1c(-c2coc(-c3ccccc3)n2)c(=O)n(-c2ccccc2)n1C | > 100 | > 100 | > 100 | > 100 | > 100 | > 100 | – | > 100 | > 100 | – | – | – | – | – | – | – | – | – | –
4 | COc1ccc2c3c(c(C(=O)O)oc13)CCC2 | > 100 | > 100 | > 100 | > 100 | > 100 | > 100 | – | > 100 | > 100 | – | – | – | – | – | – | – | – | – | –
5 | COc1cc(OC)c(/C=C/C(=O)c2ccc(Nc3ncnc4ccccc34)cc2)c(OC)c1 | 2.01 | 2.04 | 3.76 | – | 14.5 | – | – | – | 3.89 | 1.51 | 14.3 | 1.04 | 3.62 | 0.394 | 0.45 | 0.665 | 1.08 | 1.23 | 0.687
6 | O=C1OCC(c2ccc(O)cc2)=C1c1cc(O)c(O)c(O)c1 | > 100 | > 100 | > 100 | – | > 100 | > 100 | – | – | > 100 | > 100 | > 100 | > 100 | > 100 | > 100 | 36 | > 100 | > 100 | > 100 | 44.1
7 | CC(=O)NNc1nc(C)c(C(/C=C/c2ccc([N+](=O)[O-])cc2)=N/NC(N)=O)s1 | > 100 | > 100 | > 100 | – | > 100 | > 100 | – | – | > 100 | – | > 100 | – | > 100 | – | – | – | – | – | –
8 | CCNc1cc2oc(=O)cc(C(F)(F)F)c2cc1C | > 100 | > 100 | > 100 | – | > 100 | > 100 | – | – | > 100 | – | > 100 | – | > 100 | – | – | – | – | – | –
9 | CCOc1cc(C(=O)O)c2c(ccc3ccc(OC)c(OC)c32)c1OC | > 100 | > 100 | > 100 | – | > 100 | > 100 | – | – | > 100 | – | > 100 | – | > 100 | – | – | – | – | – | –
10 | Cc1cc(C(=O)Nc2cc(Oc3ccc4nc(NC(=O)C5CC5)cn4n3)ccc2C)n(C)n1 | > 10 | > 10 | > 10 | – | > 10 | > 10 | – | – | > 10 | > 10 | > 10 | 6.42 | > 10 | > 10 | 5.66 | > 10 | 3.27 | > 10 | > 10
11 | Clc1ccccc1[C@@H]1C[C@@H]2Cc3cc(Br)c4ccccc4c3N1O2 | > 100 | > 100 | > 100 | – | > 100 | > 100 | – | – | 35.6 | 4.26 | > 100 | 6.8 | > 100 | 4.08 | 4.1 | 4.91 | 3.07 | 8.11 | 4.94
12 | CCO/C(CCn1[nH]c(=O)c(Cl)c(Cl)c1=O)=N\NC(=O)C(=O)NN | > 100 | – | > 100 | > 100 | > 100 | > 100 | > 100 | – | – | – | – | – | – | – | – | – | – | – | –
13 | O=C1NCN(c2ccccc2)C12CCN(CCCC(c1ccc(F)cc1)c1ccc(F)cc1)CC2 | 3.08 | 2.96 | 9.68 | – | 12.8 | 4.1 | – | – | 2.62 | 2.43 | 6.49 | 2.53 | 7.94 | 1.68 | 1.58 | 2.56 | 0.397 | 2.99 | 1.82
14 | CC(N)Cc1ccc(Cl)cc1 (configuration not stated) | > 100 | > 100 | > 100 | – | > 100 | > 100 | > 100 | – | > 100 | – | – | – | – | – | – | – | – | – | –
15 | O=C1CSC(c2ccc(-c3nc4ccccc4[nH]3)cc2)=N1 | > 50 | > 50 | > 50 | – | > 50 | > 50 | – | – | > 50 | > 50 | > 50 | 42.4 | > 50 | 3.27 | 18.6 | 18.8 | > 50 | > 50 | 11.7
16 | NC(=O)COc1c(Br)cc(Br)cc1Br | > 100 | > 100 | > 100 | > 100 | > 100 | > 100 | – | – | – | – | – | – | – | – | – | – | – | – | –
17 | COc1cccc(OC(=O)c2ccc(C(F)(F)F)nc2Nc2c(C)cccc2Cl)c1 | > 100 | > 100 | 58.6 | – | 73.5 | > 100 | – | – | 41.4 | 18.7 | > 100 | 30.4 | > 100 | 26.4 | 25.6 | 22.8 | 17.6 | 22.4 | 35.8
18 | C=C1C2C[C@@H]3OC4CC5O[C@]6(CC5OC4C(C)C3OC(=O)CC3CC[C@@H]4OC5C7OC8C[C@](CCC9CC(=C)[C@H](CCC(C[C@H]1C)O2)O9)(OC7C4O3)O[C@@H]85)C[C@@H]1O[C@@]2(CC(C)[C@@H]3OC(CC(=O)CCO)C(O)C[C@@H]3O2)CC(C)[C@@H]1O6 (some centres not stated) | 1.33 | 0.00111 | 1.28 | – | 0.816 | – | – | 1.98 | 0.0017 | – | – | – | – | – | – | – | – | – | –
19 | COC(NC(N)=O)C(=O)O (configuration not stated) | > 100 | > 100 | > 100 | – | > 100 | > 100 | – | – | > 100 | – | > 100 | – | > 100 | – | – | – | – | – | –
